From ChEMBL document CHEMBL5113448, “Synthesis and biological evaluation of 4H-benzo[e][1,3]oxazin-4-ones analogues of TGX-221 as inhibitors of PI3Kβ” (Bioorg Med Chem, 2022)

target: T1, Phosphatidylinositol 4,5-bisphosphate 3-kinase catalytic subunit delta isoform (Homo sapiens) (UniProt O00329); assay: Inhibition of PI3Kdelta (unknown origin) at 10 uM relative to control
T1 sequence (whole entry): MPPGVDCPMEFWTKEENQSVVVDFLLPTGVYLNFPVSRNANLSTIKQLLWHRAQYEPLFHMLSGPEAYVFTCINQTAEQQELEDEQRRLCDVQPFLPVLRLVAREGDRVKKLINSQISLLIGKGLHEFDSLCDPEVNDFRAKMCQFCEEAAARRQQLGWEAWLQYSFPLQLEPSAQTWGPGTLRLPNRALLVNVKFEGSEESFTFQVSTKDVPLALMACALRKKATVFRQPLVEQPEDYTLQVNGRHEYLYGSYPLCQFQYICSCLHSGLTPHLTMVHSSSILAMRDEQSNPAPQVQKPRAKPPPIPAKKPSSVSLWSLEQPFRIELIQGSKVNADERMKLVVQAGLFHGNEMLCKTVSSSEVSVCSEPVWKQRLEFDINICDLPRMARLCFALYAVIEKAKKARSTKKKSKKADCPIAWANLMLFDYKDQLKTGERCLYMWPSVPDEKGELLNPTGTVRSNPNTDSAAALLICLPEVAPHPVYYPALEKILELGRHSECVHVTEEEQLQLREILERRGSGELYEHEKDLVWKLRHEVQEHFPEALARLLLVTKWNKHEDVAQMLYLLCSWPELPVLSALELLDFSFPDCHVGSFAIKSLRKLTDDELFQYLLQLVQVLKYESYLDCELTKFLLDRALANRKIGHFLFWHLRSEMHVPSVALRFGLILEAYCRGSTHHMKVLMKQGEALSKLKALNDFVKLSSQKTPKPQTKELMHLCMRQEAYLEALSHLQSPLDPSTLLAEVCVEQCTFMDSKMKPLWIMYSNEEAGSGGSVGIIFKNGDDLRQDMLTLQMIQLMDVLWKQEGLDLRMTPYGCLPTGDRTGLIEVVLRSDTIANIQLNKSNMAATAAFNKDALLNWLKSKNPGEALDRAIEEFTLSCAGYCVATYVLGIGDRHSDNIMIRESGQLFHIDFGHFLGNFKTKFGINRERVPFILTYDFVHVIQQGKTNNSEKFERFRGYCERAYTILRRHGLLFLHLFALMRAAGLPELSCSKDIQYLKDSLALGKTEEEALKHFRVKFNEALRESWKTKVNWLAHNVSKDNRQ

| inhibition | SMILES |
| --- | --- |
| 87% | Cc1cc(C(C)Nc2ccccc2)c2oc(N3CCOCC3)nc(=O)c2c1 (stereo unspecified) |

target: DNA-dependent protein kinase catalytic subunit (Homo sapiens, UniProt P78527); assay: Inhibition of DNA-PK (unknown origin) in the presence of ATP
Sequence (P78527 whole entry): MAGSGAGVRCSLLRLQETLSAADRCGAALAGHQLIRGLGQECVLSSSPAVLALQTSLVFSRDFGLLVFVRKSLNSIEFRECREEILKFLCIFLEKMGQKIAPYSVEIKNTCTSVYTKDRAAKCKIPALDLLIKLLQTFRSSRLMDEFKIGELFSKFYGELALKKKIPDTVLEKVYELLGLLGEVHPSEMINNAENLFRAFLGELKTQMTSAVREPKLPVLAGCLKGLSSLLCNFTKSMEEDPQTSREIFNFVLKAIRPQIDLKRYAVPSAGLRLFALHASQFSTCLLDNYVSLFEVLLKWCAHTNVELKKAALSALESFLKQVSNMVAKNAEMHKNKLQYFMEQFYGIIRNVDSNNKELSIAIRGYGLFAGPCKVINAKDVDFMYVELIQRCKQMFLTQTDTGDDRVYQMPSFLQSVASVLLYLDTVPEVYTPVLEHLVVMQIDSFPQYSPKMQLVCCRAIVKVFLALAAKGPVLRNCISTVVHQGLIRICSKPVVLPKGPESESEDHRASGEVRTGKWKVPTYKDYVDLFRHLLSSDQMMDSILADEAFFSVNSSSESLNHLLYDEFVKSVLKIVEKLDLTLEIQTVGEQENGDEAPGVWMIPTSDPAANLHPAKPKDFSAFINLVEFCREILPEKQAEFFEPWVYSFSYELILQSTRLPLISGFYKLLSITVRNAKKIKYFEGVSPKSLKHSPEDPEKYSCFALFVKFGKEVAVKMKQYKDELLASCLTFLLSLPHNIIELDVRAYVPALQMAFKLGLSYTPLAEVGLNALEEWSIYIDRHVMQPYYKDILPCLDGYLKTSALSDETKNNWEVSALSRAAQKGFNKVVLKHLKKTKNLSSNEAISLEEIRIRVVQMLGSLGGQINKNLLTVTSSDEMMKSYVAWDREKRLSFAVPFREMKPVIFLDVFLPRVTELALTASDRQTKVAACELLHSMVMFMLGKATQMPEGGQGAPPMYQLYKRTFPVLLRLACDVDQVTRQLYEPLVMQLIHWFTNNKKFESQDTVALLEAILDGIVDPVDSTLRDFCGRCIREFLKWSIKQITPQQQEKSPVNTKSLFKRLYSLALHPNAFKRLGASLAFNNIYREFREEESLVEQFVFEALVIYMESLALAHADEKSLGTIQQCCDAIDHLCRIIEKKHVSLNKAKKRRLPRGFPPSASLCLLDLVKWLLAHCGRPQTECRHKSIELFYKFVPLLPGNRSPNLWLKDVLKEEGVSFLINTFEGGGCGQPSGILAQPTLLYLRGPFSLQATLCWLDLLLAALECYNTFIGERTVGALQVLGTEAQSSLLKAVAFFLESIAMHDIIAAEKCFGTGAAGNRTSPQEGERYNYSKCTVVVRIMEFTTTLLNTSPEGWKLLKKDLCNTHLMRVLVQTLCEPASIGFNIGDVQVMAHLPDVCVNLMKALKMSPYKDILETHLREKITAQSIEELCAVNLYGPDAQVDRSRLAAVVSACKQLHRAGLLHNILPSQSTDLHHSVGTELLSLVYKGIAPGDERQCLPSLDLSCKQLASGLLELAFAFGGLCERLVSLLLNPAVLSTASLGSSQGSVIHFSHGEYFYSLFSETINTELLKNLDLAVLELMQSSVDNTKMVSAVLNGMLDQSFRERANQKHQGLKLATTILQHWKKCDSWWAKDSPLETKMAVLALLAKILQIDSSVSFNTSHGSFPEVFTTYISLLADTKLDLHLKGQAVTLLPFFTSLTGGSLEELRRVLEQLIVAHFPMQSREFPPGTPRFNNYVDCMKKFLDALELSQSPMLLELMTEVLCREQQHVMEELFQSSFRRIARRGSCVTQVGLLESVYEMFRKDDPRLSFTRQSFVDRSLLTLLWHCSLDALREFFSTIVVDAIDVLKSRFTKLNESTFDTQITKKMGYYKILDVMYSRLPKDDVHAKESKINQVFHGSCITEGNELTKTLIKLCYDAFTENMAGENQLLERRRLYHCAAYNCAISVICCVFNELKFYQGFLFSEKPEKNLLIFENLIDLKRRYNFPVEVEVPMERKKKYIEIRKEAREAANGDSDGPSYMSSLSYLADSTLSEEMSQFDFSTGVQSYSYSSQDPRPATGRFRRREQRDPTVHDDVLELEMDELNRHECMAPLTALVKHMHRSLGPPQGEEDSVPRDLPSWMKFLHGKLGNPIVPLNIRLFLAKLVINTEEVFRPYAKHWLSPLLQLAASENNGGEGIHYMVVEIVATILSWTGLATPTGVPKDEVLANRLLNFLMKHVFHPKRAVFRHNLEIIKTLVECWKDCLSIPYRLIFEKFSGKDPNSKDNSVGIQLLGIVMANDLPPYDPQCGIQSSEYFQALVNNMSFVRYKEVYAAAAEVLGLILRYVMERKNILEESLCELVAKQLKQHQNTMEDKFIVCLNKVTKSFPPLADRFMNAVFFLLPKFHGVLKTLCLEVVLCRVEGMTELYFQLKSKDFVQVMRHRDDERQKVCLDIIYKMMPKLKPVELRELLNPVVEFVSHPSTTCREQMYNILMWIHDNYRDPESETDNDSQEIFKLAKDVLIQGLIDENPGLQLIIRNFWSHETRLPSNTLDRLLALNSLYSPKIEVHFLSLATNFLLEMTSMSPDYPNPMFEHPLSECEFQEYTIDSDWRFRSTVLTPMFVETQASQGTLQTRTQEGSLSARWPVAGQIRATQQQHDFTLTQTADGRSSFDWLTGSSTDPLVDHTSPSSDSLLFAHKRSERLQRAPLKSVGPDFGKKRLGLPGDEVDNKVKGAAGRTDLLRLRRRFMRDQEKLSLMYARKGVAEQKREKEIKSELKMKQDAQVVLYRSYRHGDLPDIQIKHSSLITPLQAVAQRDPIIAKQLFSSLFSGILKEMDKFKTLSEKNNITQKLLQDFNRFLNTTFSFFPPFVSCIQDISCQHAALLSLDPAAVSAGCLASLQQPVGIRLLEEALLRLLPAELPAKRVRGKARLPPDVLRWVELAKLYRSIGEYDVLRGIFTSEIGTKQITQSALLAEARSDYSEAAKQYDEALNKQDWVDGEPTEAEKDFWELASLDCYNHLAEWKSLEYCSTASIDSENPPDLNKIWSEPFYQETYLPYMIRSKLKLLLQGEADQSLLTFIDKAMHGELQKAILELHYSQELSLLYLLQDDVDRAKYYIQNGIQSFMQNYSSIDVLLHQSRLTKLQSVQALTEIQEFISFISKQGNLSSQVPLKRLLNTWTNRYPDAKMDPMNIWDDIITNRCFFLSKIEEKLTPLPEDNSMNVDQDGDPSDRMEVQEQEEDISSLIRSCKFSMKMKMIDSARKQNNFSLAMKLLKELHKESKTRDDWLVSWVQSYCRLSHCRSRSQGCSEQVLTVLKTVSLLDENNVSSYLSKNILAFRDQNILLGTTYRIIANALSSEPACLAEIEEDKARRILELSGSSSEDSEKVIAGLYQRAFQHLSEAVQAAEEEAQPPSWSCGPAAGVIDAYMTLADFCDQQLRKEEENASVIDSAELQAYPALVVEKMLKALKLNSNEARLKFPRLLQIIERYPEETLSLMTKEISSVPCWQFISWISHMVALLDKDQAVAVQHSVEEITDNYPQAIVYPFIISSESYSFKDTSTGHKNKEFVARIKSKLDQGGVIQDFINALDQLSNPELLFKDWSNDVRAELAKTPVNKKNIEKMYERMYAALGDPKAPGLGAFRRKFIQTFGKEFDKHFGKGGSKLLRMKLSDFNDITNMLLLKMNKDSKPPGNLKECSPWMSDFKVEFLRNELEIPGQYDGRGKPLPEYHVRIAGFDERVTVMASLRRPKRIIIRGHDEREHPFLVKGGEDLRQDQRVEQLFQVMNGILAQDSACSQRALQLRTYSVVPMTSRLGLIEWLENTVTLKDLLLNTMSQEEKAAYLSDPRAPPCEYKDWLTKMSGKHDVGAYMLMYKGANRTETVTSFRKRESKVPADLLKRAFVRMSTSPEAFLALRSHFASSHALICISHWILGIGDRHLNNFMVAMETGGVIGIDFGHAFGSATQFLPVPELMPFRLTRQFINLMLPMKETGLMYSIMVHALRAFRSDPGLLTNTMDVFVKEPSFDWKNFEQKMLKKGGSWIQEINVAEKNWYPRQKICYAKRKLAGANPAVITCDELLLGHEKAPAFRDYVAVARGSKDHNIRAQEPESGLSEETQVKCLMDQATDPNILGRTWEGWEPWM

| IC50 | SMILES |
| --- | --- |
| 120 nM | Cc1cc(C(C)Nc2ccccc2)c2oc(N3CCOCC3)cc(=O)c2c1 (stereo unspecified) |

target: Phosphatidylinositol 4,5-bisphosphate 3-kinase catalytic subunit beta isoform (Homo sapiens, UniProt P42338); assay: Inhibition of PI3Kbeta (unknown origin) incubated for 60 mins in the presence of ATP by Kinase-Glo luminescence assay
Sequence (P42338 whole entry, canonical isoform): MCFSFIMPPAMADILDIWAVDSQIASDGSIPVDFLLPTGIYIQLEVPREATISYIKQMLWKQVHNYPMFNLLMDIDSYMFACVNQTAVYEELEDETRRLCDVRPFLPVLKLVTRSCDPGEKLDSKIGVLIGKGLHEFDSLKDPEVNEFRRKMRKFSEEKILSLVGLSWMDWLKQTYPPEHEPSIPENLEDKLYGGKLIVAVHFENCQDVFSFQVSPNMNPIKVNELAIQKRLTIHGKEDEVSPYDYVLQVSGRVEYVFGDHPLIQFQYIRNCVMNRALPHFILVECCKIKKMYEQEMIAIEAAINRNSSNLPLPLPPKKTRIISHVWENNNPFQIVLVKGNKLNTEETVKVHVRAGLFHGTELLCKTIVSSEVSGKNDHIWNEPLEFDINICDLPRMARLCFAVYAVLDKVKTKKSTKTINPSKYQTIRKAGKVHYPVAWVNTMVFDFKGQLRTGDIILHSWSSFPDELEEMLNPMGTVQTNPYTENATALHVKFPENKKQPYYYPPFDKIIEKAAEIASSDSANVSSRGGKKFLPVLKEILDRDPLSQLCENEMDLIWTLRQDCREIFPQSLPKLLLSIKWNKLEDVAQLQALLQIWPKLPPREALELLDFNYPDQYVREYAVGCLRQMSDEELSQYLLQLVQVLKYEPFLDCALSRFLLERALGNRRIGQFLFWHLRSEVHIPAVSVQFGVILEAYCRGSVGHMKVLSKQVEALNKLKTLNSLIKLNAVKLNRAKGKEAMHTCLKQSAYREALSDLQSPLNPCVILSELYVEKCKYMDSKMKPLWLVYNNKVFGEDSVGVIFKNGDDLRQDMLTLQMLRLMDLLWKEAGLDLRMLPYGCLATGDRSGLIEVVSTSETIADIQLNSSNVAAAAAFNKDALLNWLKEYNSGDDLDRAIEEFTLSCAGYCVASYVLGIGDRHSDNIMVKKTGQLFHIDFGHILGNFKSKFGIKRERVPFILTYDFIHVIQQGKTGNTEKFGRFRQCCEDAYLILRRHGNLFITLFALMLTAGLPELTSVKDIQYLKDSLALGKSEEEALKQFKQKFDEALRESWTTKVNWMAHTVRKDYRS

| SMILES | IC50 |
| --- | --- |
| COc1ccc(OC(C)c2cc(C)cc3c(=O)nc(N4CCOCC4)oc23)cc1 (stereo unspecified) | > 20000 nM |
| Cc1ccc(OC(C)c2cc(C)cc3c(=O)nc(N4CCOCC4)oc23)cc1 (stereo unspecified) | > 20000 nM |
| Cc1cc(C(C)Nc2cc(F)ccc2F)c2oc(N3CCOCC3)nc(=O)c2c1 (stereo unspecified) | 70 nM |
| Cc1cc(C(C)Oc2ccccc2C)c2oc(N3CCOCC3)nc(=O)c2c1 (stereo unspecified) | 227 nM |
| COc1cccc(OC(C)c2cc(C)cc3c(=O)nc(N4CCOCC4)oc23)c1 (stereo unspecified) | 1880 nM |
| Cc1cc(C(C)Oc2cc(C)c(Cl)c(C)c2)c2oc(N3CCOCC3)nc(=O)c2c1 (stereo unspecified) | > 20000 nM |
| Cc1cc(C(C)Oc2ccccc2)c2oc(N3CCOCC3)nc(=O)c2c1 (stereo unspecified) | 1430 nM |
| Cc1cc(C(C)Oc2ccc(Cl)c(C)c2)c2oc(N3CCOCC3)nc(=O)c2c1 (stereo unspecified) | > 20000 nM |
| Cc1cccc(OC(C)c2cc(C)cc3c(=O)nc(N4CCOCC4)oc23)c1 (stereo unspecified) | 2440 nM |
| Cc1cc(C(C)Nc2cccc3ccccc23)c2oc(N3CCOCC3)nc(=O)c2c1 (stereo unspecified) | 49.2 nM |

Further lines, results first:

| IC50 | SMILES |
| --- | --- |
| 12600 nM | Cc1cc(C(C)Nc2ccc(Br)cc2)c2oc(N3CCOCC3)nc(=O)c2c1 (stereo unspecified) |
| 240 nM | Cc1cc(C(C)Nc2ccccc2)c2oc(N3CCOCC3)nc(=O)c2c1 (stereo unspecified) |
| 272 nM | Cc1cc(C(C)Nc2cccc(Cl)c2F)c2oc(N3CCOCC3)nc(=O)c2c1 (stereo unspecified) |
| 1220 nM | Cc1cc(C(C)Nc2c(F)cccc2F)c2oc(N3CCOCC3)nc(=O)c2c1 (stereo unspecified) |
| 72.7 nM | Cc1cc(C(C)Nc2cccc(Cl)c2)c2oc(N3CCOCC3)nc(=O)c2c1 (stereo unspecified) |
| 281 nM | Cc1cc(C(C)Nc2ccc(F)cc2F)c2oc(N3CCOCC3)nc(=O)c2c1 (stereo unspecified) |
| 152 nM | Cc1cc(C(C)Nc2cc(F)cc(F)c2)c2oc(N3CCOCC3)nc(=O)c2c1 (stereo unspecified) |
| 62.7 nM | Cc1cc(C(C)Nc2ccc(F)c(F)c2)c2oc(N3CCOCC3)nc(=O)c2c1 (stereo unspecified) |
| 136 nM | Cc1cc(C(C)Nc2ccccc2Cl)c2oc(N3CCOCC3)nc(=O)c2c1 (stereo unspecified) |
